Laboratory results reported in ChEMBL document CHEMBL1201862, “PubChem BioAssay data set” (2004).
Active and inactive are the calls of the source.

Assays:
H9c2 = assay: cells; format: functional, cell-based; details: Rattus norvegicus, H9c2, Myocardium;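 also: confirmatory concentration-response retest of ultra-high-throughput screening hits for modulation of myocardial damage; cell death induced by hydrogen peroxide oxidative stress; compound pretreatment for 60 min then peroxide exposure for 2 h; potency is for protecting the cells against peroxide damage rather than for killing them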
[1] = reduction of Shn3 3'UTR-driven luciferase in osteoblasts – cell-based, Clone20 osteoblasts, firefly luciferase, cherry-picked, dose response (AID 624132); format: functional;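 also: firefly luciferase luminescence from reporter carrying the Shn3 3'UTR in osteoblasts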
[2] = biological target: T1, RNA-binding protein pos-1 (Caenorhabditis elegans, UniProt G5EF15); assay: disruptors of C. elegans POS-1 RNA interaction – biochemical, fluorescence polarization, dose response (AID 1964);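 also: purified POS-1 fused to maltose binding protein made in E. coli; potency of compounds blocking POS-1 binding to fluorescent RNA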
T1 sequence (G5EF15 whole entry): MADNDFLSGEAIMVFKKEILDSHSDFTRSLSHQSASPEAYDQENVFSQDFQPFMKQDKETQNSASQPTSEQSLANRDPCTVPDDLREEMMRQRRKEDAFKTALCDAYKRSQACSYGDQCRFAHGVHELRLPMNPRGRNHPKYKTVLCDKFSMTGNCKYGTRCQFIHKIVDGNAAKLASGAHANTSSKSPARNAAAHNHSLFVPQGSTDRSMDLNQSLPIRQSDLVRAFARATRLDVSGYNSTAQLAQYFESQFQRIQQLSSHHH

[3] = biological target: T2, Zinc finger protein mex-5 (Caenorhabditis elegans, UniProt Q9XUB2); assay: potency of MEX-5 RNA-binding blockers – biochemical, C. elegans, fluorescence polarization, dose response (AID 1960)
T2 sequence (Q9XUB2 whole entry): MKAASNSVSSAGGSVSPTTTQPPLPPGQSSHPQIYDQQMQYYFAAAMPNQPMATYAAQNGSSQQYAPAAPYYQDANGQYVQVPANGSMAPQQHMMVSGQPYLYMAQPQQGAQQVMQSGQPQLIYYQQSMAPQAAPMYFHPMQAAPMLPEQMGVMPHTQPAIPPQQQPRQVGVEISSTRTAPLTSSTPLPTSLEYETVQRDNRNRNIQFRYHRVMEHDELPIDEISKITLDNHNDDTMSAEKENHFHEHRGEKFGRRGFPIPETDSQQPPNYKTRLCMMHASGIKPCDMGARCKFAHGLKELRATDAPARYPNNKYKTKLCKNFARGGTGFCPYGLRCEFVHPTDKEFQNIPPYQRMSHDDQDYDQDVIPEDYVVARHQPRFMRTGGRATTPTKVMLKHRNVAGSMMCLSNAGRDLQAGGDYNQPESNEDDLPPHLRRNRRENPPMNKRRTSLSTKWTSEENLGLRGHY

[4] = biological target: T3, Corticotropin-releasing factor receptor 2/Corticotropin-releasing factor-binding protein (Homo sapiens, UniProt P24387+Q13324); assay: activators of CRF receptor 2 with binding protein – uHTS hits, confirmation (AID 602473); format: functional; details: read-out: EC50_Mean
T3 sequence (Q13324 whole entry): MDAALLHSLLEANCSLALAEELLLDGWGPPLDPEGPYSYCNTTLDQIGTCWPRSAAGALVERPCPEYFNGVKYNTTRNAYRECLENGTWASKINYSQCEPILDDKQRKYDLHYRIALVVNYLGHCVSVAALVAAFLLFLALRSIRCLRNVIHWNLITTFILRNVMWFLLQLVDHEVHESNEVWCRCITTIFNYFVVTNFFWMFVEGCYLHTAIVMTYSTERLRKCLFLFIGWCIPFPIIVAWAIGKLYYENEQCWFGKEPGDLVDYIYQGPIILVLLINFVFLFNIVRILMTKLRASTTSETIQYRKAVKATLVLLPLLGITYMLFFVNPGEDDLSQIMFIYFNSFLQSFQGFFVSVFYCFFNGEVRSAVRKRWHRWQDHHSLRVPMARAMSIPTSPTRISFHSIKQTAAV
T3 sequence (P24387 whole entry): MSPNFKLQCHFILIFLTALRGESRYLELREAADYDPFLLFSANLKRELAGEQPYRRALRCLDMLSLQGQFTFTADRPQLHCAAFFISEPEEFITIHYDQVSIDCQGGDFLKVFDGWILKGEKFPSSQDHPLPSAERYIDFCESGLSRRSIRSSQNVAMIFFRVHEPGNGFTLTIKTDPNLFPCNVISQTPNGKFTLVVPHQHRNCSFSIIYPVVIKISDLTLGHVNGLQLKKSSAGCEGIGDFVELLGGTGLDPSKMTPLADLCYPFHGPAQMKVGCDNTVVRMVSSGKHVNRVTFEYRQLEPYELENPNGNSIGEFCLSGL

Cytochrome P450 2C19 = Cytochrome P450 2C19 (Homo sapiens, UniProt P33261); assay: Cytochrome panel assay with activity outcomes. Panel member name: p450-cyp2c19 Compounds with AC50 equal or less than 10 uM are considered active; format: functional; details: read-out: AC50
Cytochrome P450 2C9 = Cytochrome P450 2C9 (Homo sapiens, UniProt P11712)
[5] = biological target: T4, Replicative DNA helicase DnaB (Mycobacterium tuberculosis, UniProt P9WMR3); assay: DnaB intein splicing inhibitors, dose response, biochemical, cell-free fluorescence (AID 449749); format: functional
T4 sequence (P9WMR3 whole entry): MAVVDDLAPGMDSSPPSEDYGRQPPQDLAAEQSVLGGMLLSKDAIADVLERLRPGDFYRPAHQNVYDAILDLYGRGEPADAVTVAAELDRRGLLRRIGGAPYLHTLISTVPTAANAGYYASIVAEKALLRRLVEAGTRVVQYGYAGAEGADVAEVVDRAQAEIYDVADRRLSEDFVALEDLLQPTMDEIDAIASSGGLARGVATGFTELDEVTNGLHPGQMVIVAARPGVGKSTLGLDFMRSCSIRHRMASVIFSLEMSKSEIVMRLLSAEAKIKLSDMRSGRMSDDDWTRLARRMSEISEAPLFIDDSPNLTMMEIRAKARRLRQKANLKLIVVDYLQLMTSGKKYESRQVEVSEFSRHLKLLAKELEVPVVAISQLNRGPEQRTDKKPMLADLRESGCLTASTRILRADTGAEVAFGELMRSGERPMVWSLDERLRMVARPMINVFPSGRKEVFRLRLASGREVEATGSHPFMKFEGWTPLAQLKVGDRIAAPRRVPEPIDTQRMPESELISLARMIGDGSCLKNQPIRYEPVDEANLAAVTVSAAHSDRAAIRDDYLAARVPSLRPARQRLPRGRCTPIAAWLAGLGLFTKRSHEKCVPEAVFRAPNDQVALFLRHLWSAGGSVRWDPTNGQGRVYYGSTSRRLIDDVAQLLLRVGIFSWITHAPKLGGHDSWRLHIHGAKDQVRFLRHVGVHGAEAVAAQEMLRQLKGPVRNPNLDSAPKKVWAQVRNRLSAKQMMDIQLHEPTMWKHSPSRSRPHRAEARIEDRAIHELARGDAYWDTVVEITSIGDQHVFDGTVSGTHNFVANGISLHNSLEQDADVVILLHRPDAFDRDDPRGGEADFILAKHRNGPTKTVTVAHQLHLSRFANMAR

Protein RecA = biological target: T5, Protein RecA (Mycobacterium tuberculosis, UniProt P9WHJ3); assay: Fluorescence Cell-Free Homogeneous Dose Retest to Identify Inhibitors of RecA-Intein Splicing Activity. [Related pubchem assays (depositor defined):AID2097, AID2223, AID489010, AID492950]; format: functional
T5 sequence (P9WHJ3 whole entry): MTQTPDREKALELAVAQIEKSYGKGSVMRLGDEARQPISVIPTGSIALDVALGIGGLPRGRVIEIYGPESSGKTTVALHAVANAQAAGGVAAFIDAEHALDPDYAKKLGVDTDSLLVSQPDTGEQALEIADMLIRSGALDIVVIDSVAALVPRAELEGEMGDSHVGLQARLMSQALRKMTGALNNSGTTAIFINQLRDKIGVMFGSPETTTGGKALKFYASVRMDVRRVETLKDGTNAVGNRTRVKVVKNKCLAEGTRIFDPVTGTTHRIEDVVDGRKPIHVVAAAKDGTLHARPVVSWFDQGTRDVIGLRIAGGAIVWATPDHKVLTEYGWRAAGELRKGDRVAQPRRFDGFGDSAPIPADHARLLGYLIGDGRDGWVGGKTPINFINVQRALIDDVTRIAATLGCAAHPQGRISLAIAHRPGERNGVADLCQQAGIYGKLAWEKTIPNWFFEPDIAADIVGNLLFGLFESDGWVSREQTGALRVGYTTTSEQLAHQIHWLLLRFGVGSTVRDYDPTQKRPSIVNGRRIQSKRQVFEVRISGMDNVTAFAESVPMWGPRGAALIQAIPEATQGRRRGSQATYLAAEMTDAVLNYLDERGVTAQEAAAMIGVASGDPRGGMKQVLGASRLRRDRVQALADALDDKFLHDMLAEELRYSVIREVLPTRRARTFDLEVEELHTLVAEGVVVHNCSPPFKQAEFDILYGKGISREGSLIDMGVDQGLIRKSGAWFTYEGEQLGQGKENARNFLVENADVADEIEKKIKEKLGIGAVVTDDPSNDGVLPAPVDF

[6] = Luminescence Cell-Based Dose Response HTS to Identify Activators of Luciferase Translation or Activity in H4 […] Cells. [Related pubchem assays: 1829 (Project Summary), 1814 (Primary HTS)]; format: functional
H4 = assay: Luminescence Cell-Based Dose Response HTS to Identify Activators of 5'UTR Stem-Loop Driven Prion Protein mRNA Translation in H4 Neuroglioblastoma Cells. [Related pubchem assays: 1829 (Project Summary), 1814 (Primary HTS)]; format: functional; details: Homo sapiens

Sequence of Cytochrome P450 2C9 (P11712 whole entry): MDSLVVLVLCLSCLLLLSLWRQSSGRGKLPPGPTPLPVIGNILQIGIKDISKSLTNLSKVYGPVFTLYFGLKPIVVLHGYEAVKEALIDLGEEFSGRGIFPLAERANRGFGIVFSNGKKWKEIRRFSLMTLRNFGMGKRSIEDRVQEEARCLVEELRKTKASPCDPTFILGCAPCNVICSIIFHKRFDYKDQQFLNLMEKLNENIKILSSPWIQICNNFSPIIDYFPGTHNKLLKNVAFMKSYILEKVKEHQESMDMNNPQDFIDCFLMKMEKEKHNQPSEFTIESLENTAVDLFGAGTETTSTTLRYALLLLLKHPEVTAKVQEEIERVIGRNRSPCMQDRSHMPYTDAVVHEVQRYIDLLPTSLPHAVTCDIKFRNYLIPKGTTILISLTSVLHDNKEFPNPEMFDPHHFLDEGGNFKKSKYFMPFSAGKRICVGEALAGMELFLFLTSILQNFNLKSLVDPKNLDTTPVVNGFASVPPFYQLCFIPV
Sequence of Cytochrome P450 2C19 (P33261 whole entry): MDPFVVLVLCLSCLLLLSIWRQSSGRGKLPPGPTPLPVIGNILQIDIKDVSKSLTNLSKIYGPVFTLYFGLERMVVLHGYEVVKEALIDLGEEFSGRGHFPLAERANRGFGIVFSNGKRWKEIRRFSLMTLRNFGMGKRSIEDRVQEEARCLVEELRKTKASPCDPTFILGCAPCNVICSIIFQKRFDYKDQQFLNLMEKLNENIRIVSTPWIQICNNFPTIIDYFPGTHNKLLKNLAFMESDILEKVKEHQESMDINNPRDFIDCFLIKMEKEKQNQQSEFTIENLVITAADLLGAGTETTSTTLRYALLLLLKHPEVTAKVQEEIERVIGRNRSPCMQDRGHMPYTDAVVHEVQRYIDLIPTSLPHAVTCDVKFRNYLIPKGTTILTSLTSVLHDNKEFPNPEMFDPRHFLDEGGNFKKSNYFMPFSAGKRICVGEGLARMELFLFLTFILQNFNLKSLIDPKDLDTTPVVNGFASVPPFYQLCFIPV

SMILES	IC50 (H9c2)	EC50 [2]	EC50 [3]	further results
C/C(=N\NC(=O)c1nnn(-c2nonc2N)c1CSc1ccc(C)cc1)c1cccnc1	> 79 µM (inactive)	–	–	–
C[C@]12CC[C@H](O)CC1=CCC1C2CC[C@@]2(C)C1CCC21OCCO1 (stereo partly specified)	–	–	–	AC50 [1]: 27.3 µM (active)
COc1ccc(OC)c(/C=c2\sc3nc(-c4cccs4)nn3c2=O)c1	–	> 300 µM (not active)	> 300 µM (inconclusive)	EC50 [4]: 6.32 µM (active)
CCOC(=O)Cc1nc2ccccc2n(CC#N)c1=O	–	> 300 µM (not active)	> 300 µM (not active)	–
Fc1ccc2c(c1)C1C=CCC1C(c1cc3c(cc1Br)OCO3)N2 (stereo unspecified)	–	> 300 µM (not active)	> 300 µM (not active)	AC50 (Cytochrome P450 2C19): 0.316 µM (inconclusive); AC50 (Cytochrome P450 2C9): 1.78 µM (inconclusive)
CCO/C(C)=N/n1c2nc3ccccc3nc2c2c(=O)n(C3CCCC3)c(C)nc21	–	> 300 µM (not active)	> 300 µM (not active)	–
Cc1nc(N2CCN(Cc3ccccc3)CC2)c(C#N)c2c1COC(C)(C)C2	–	94.5 µM (active)	108 µM (active)	–
CCCCc1ccc(/C=C2\C(=O)ON=C2c2ccccc2)s1	–	68 µM (active)	87.7 µM (active)	–
CCOC(=O)/C(C#N)=C1/SC(C)C(=O)N1c1ccc(Br)cc1 (stereo unspecified)	–	–	–	AC50 [5]: 21 µM (active); EC50 (Protein RecA): 11.1 µM (active)
CN1CC=C2C(C#N)=C(N)C(C#N)(C#N)C(c3ccncc3)C2C1 (stereo unspecified)	–	52.9 µM (inconclusive)	7.73 µM (active)	–
Cc1nc(N2CCN(S(=O)(=O)c3cccc4nonc34)CC2)c2c3c(sc2n1)CCCC3	> 79 µM (inactive)	–	–	–
CC(C)(C)c1cnnn1-c1ccc(C(=O)CCl)cc1	–	–	–	AC50 [5]: 4.17 µM (active); EC50 (Protein RecA): 2.89 µM (active)
c1ccc(-c2nc(-n3ccnc3)nc(-n3ccnc3)n2)cc1	> 79 µM (inactive)	–	–	–
CCOC1(OCC)C(c2ccc(Cl)cc2)C(C#N)(C#N)C1(OCC)OCC (stereo unspecified)	–	–	–	AC50 [5]: 148 µM (active); EC50 (Protein RecA): > 380 µM (inconclusive)
Nc1n[nH]c(Sc2ccc([N+](=O)[O-])cc2[N+](=O)[O-])n1	–	85.7 µM (active)	30.1 µM (active)	–
CCOC(=O)N1CCC(c2cc(=O)n(-c3ccccc3)[nH]2)CC1	–	–	–	AC50 [5]: 3.66 µM (active); EC50 (Protein RecA): 2.51 µM (active)

SMILES	IC50 (H9c2)	EC50 [2]	EC50 [3]	further results
O=C(CCc1nc(O)c2ccccc2n1)Nc1ccc(F)c([N+](=O)[O-])c1	> 79 µM (inactive)	–	–	–
O=C(OCC(=O)N1CCc2ccccc21)c1nnc(O)c2ccccc12	12.3 µM (active)	–	–	–
NS(=O)(=O)c1ccc(N/C=C2/C(=O)N(c3nccs3)C(=O)c3ccccc32)cc1	> 79 µM (inactive)	–	–	–
CCCCn1c(N)c(Br)c(=O)[nH]c1=O	> 79 µM (inactive)	–	–	–
Cc1ccc(C(=O)C2C(c3ccc(-c4ccccc4[N+](=O)[O-])o3)NC(=O)NC2(O)C(F)(F)F)cc1 (stereo unspecified)	–	–	–	AC50 [5]: 5.13 µM (active); EC50 (Protein RecA): 11.6 µM (active)
CCOC(=O)C1CCN(c2cc3c(cc2NC(=O)c2ccc(F)cc2)n(C)c(=O)n3C)CC1	16.7 µM (active)	–	–	–
Cc1n[nH]c(N=Nc2ccc(O)cc2)n1	–	> 300 µM (not active)	4.83 µM (active)	–
O=C(NCc1ccc2c(c1)OCO2)c1nnc(O)c2ccccc12	> 79 µM (inactive)	–	–	–
COc1cccc2cc(-c3cc(=O)oc4ccc(OCC(C)=O)cc34)oc12	> 79 µM (inactive)	–	–	–
O=C(CCC(=O)N1CCN(C2CCCCC2)CC1)Nc1nnc(C(F)(F)F)s1	> 79 µM (inactive)	–	–	–
Cc1n[nH]c2c1C(c1c(C)nn(-c3ccccc3)c1C)C(C#N)=C(N)O2 (stereo unspecified)	–	–	–	AC50 [5]: 18.6 µM (active); EC50 (Protein RecA): 12.5 µM (active)
Cc1ccc(N(CC(=O)Nc2ccc(-c3nc4ccc(C)cc4s3)cc2)S(C)(=O)=O)cc1	–	–	–	EC50 [6]: 1.19 µM (active); EC50 (H4): > 120 µM (not active)
Cc1ccc(-c2nnc(O)c3ccccc23)cc1S(=O)(=O)Nc1ccccc1	21.3 µM (active)	–	–	–
CCOC(=O)[C@]1(C#N)[C@@H]2C=CC(C(C)=O)=CN2[C@@H](C(N)=O)[C@@H]1c1ccsc1	–	2.5 µM (active)	12.3 µM (active)	–
CCOc1ccc(NC(=O)CN(C)C(=O)Cc2nnc(O)c3ccccc23)cc1OCC	> 79 µM (inactive)	–	–	–
